Data reported in patent US20080300298A1, “Honokiol Derivates For the Treatment of Proliferative Disorders” (priority 2005, published 2008).

How the values were obtained:
SU-DHL-4 cells = experiment: induction of apoptosis; type: cell-based; conditions: cells resistant to doxorubicin and As2O3-induced apoptosis; without activation of caspase 3
Text: However, in contrast to the complete block of As2O3-induced apoptosis by z-VAD-fmk, inhibition of HNK-induced apoptosis by z-VAD-fmk was only partial, evidenced by PARP cleavage and APO2.7 assay (FIGS. 7B and D).
HNK induces apoptosis in SU-DHL4 cells, which express low levels of caspase-8 and -3 and are resistant to doxorubicin, As2O3, melphalan, dexamethasone, bortezomib (Chauhan et al. Cancer Res. 2003; 63:6174-6177), and revlimid. Therefore, agents such as HNK which kill MM cells via both caspase-dependent and caspase-independent pathways may be particularly useful to overcome drug resistance.

[1] = tested on: human promyelocytic leukemic cell line HL-60; conditions: cited from earlier work
MM.1S cells = experiment: [3H]-thymidine uptake with IL-6, IGF-1 or BMSCs; type: cell-based, human; conditions: 48 h
Procedure: DNA synthesis was measured as previously described, see, for example, Hideshima et al Blood. 2000; 96:2943-2950. Cells in 96-well culture plates were pulsed with 0.5 μCi/well of [^3H]-thymidine (Perkin Elmer, Boston, Mass.) during the last 8 h of culture, harvested onto glass filters with an automatic cell harvester (Cambridge Technology, Cambridge, Mass.), and counted using the LKB Betaplate scintillation counter (Wallac, Gaithersburg, Md.). All experiments were performed in triplicate.
Assessment of HNK-induced cytotoxicity against patient MM cells: Cytotoxicity of HNK against fresh MM cells was determined as previously determined, see, for example, Mitsiades et al Cancer Cell. 2004; 5:221-230. […] A CD38^high fraction enriched for MM cells was determined in side and forward scatter panel in each case. The expression of CD138 on gated cells was also evaluated. After HNK-treatment for 48 h, cells were harvested and percentage of CD38^high cells with or without HNK-treatment was evaluated. […] Cells were stained with propidium iodide (PI; 50 μg/mL; Sigma, St Louis, Mo.), and cell cycle profile was determined by using the program M software on an EPICS XL flow cytometer (Beckman Coulter, Hialeah, Fla.). […] Fluorescence intensity of TUNEL and APO 2.7 staining was determined using on EPICS XL flow cytometer. Cytotoxicity was determined by trypan blue exclusion assay. […]

## C=CCc1ccc(O)c(-c2ccc(O)c(CC=C)c2)c1 [HNK, Honokiol]
SU-DHL-4 cells
  apoptosis in SU-DHL-4 cells: induced apoptosis in SU-DHL-4 cells
[1]
  IC50 value: less than 100 ng/ml
MM.1S cells; MM.1S on BMSCs of MM patients
  DNA synthesis triggered by binding to BMSCs: abrogated
MM.1S cells; MM.1S
  growth inhibition in the presence of IL-6 or IGF-1: Neither IL-6 nor IGF-1 protected against HNK induced growth inhibition
